Laboratory results: patent US20260250626A1, “LACTOBACILLUS SALIVARIUS STRAINS AND USES THEREOF” (CHEMO RESEARCH, S.L., priority 2022, published 2026)
Where “and” joins values, the source holds several entries; their conditions need not be identical. Equal values may be shown once. Read-outs that look alike come from different tables or passages of the source.

Legend:
[1] = human, in vivo; cited from earlier work
[2] = tested on: L. salivarius MP98; assay: Sensitivity to antibiotics by E-test (MIC); assay type: cell-based, Ligilactobacillus salivarius; design: MIC value: unit not given here
[3] = Recurrent gout trial: blood biochemical parameters (uric acid, lipids, transaminases); assay type: in vivo, human
[4] = Recurrent gout trial: oxidative stress (OS)-related parameters and NOx in plasma; assay type: in vivo, human
[5] = Recurrent gout trial: gout episodes and intake of gout-related drugs; assay type: in vivo, human; conditions: control group (allopurinol), individual patients 1-15
[6] = control group (allopurinol), individual patients 1-15, serum, after finishing the study
[7] = control group, before starting the study, individual patients 1-15
[8] = control group (allopurinol), individual patients 1-15, plasma, after finishing the study
[9] = control group, before starting the study, individual patients 1-15, normalized per mg protein
[10] = control group, before starting the study, individual patients 1-15, plasma concentration (µmol/L)
[11] = drug intake recorded through the study
[12] = MIC of the antibiotic to L. salivarius MP98, E-test

Cc1nc(-c2ccc(OCC(C)C)c(C#N)c2)sc1C(=O)O [febuxostat]
patients in gout therapy achieving serum urate levels <6 mg/dl (<0.35 mmol/L) [1]: 45-67%

penicillin
MIC value [2]: 0.25

Oc1ncnc2[nH]ncc12 [allopurinol]
GOT (UI/L) [3, 6]: 20.05 UI/L and 22.63 UI/L and 37.84 UI/L and 37.28 UI/L and 33.57 UI/L and 27.60 UI/L and 37.24 UI/L and 21.94 UI/L and 40.68 UI/L and 41.07 UI/L and 39.21 UI/L and 31.82 UI/L and 32.99 UI/L and 38.57 UI/L and 32.42 UI/L | GPT (UI/L) [3, 6]: 19.97 UI/L and 27.46 UI/L and 44.90 UI/L and 27.61 UI/L (2×) and 43.27 UI/L and 53.45 UI/L and 34.73 UI/L and 27.08 UI/L and 59.99 UI/L and 53.87 UI/L and 35.57 UI/L and 39.40 UI/L and 44.47 UI/L and 33.84 UI/L | Total cholesterol [3, 6]: 172.63 mg/dL and 176.04 mg/dL and 206.72 mg/dL and 196.82 mg/dL and 183.24 mg/dL and 194.32 mg/dL and 176.47 mg/dL and 170.51 mg/dL and 224.95 mg/dL and 199.08 mg/dL and 193.84 mg/dL and 181.94 mg/dL and 178.63 mg/dL and 187.14 mg/dL and 183.02 mg/dL | Triglycerides [3, 6]: 157.81 mg/dL and 153.17 mg/dL and 169.90 mg/dL and 158.47 mg/dL and 165.58 mg/dL and 164.25 mg/dL and 162.81 mg/dL and 165.45 mg/dL and 189.72 mg/dL and 171.63 mg/dL and 154.57 mg/dL and 165.16 mg/dL and 163.83 mg/dL and 160.02 mg/dL and 168.91 mg/dL | Uric acid [3, 6]: 7.11 mg/dl and 7.46 mg/dl and 9.68 mg/dl and 8.87 mg/dl and 7.64 mg/dl and 9.61 mg/dl and 8.69 mg/dl and 7.90 mg/dl and 10.92 mg/dl and 10.87 mg/dl and 9.12 mg/dl (2×) and 8.57 mg/dl and 10.49 mg/dl and 9.38 mg/dl | any parameter, T1 against T2 samples ([3]; control group, 100-300 mg/daily for one year): no differences in any parameter | GOT [3, 7]: 20.94 UI/L and 24.52 UI/L and 38.57 UI/L and 36.71 UI/L and 35.83 UI/L and 25.11 UI/L and 35.37 UI/L and 21.62 UI/L and 42.75 UI/L and 40.28 UI/L and 37.01 UI/L and 30.17 UI/L and 34.88 UI/L and 39.64 UI/L and 30.53 UI/L | GPT [3, 7]: 19.32 UI/L and 25.75 UI/L and 47.78 UI/L and 29.19 UI/L and 42.81 UI/L and 55.07 UI/L and 30.64 UI/L and 25.55 UI/L and 54.98 UI/L and 49.91 UI/L and 37.56 UI/L and 30.07 UI/L and 40.39 UI/L and 45.29 UI/L and 30.37 UI/L | Total cholesterol [3, 7]: 170.45 mg/dl and 179.39 mg/dl and 208.16 mg/dl and 195.37 mg/dl (2×) and 188.31 mg/dl and 192.43 mg/dl and 177.63 mg/dl and 169.04 mg/dl and 229.46 mg/dl and 197.18 mg/dl and 184.41 mg/dl and 176.25 mg/dl and 184.30 mg/dl and 185.19 mg/dl | Triglycerides [3, 7]: 152.07 mg/dL and 151.28 mg/dL and 172.29 mg/dL and 155.83 mg/dL and 166.74 mg/dL and 162.41 mg/dL and 168.02 mg/dL and 162.33 mg/dL and 187.99 mg/dL and 172.25 mg/dL and 160.86 mg/dL and 162.25 mg/dL and 167.27 mg/dL and 162.91 mg/dL and 168.28 mg/dL | Uric acid [3, 7]: 7.03 mg/dl and 7.53 mg/dl and 9.97 mg/dl and 8.44 mg/dl (2×) and 7.56 mg/dl and 9.99 mg/dl and 7.81 mg/dl and 10.64 mg/dl and 11.69 mg/dl and 9.20 mg/dl and 8.24 mg/dl and 10.05 mg/dl and 9.92 mg/dl and 9.06 mg/dl | patients in gout therapy achieving serum urate levels <6 mg/dl (<0.35 mmol/L) [1]: 20-40% | 8-isoprostaglandin Fzs [4, 8]: 166.1 pg/mL and 162.9 pg/mL and 205.9 pg/mL and 164.8 pg/mL and 175.0 pg/mL and 192.4 pg/mL and 204.7 pg/mL and 165.2 pg/mL and 205.1 pg/mL and 207.1 pg/mL and 195.9 pg/mL and 164.5 pg/mL and 186.3 pg/mL and 191.9 pg/mL and 175.8 pg/mL | AOPPs [4, 8]: 54.87 µmol/L and 57.96 µmol/L and 66.12 µmol/L and 58.27 µmol/L and 62.35 µmol/L and 64.76 µmol/L and 60.56 µmol/L and 57.71 µmol/L and 65.70 µmol/L and 63.68 µmol/L and 60.94 µmol/L and 59.37 µmol/L and 61.97 µmol/L and 64.14 µmol/L and 59.82 µmol/L | AOPPs (nmol/mg protein) [4, 8]: 0.72 nmol/mg protein and 0.75 nmol/mg protein (2×) and 0.83 nmol/mg protein (2×) and 0.76 nmol/mg protein (2×) and 0.78 nmol/mg protein (2×) and 0.80 nmol/mg protein (2×) and 0.77 nmol/mg protein and 0.82 nmol/mg protein and 0.81 nmol/mg protein (2×) | MDA [4, 8]: 1.78 μmol/L and 1.83 μmol/L and 2.37 μmol/L and 1.84 μmol/L (2×) and 2.14 μmol/L and 2.09 μmol/L and 1.81 μmol/L (2×) and 2.29 μmol/L and 2.22 μmol/L and 2.01 μmol/L and 1.74 μmol/L and 2.27 μmol/L and 2.08 μmol/L | NOx [4, 8]: 21.32 µmol/L and 19.26 µmol/L and 23.87 µmol/L and 22.75 µmol/L and 21.13 µmol/L and 24.97 µmol/L and 24.59 µmol/L and 22.33 µmol/L and 26.43 µmol/L and 28.07 µmol/L and 24.07 µmol/L and 24.81 µmol/L and 25.79 µmol/L and 25.95 µmol/L and 22.68 µmol/L | Nitrate [4, 8]: 16.92 µmol/L and 16.86 µmol/L and 28.79 µmol/L and 19.85 µmol/L and 21.04 µmol/L and 23.87 µmol/L and 22.81 µmol/L and 17.40 µmol/L and 26.73 µmol/L and 27.47 µmol/L and 22.10 µmol/L and 17.49 µmol/L and 21.36 µmol/L and 25.27 µmol/L and 20.31 µmol/L | Nitrite [4, 8]: 1.82 µmol/L and 1.87 µmol/L and 2.29 µmol/L and 1.67 µmol/L and 2.03 µmol/L and 2.24 µmol/L and 2.27 µmol/L and 1.84 µmol/L and 2.02 µmol/L and 2.22 µmol/L and 2.19 µmol/L and 1.77 µmol/L and 2.26 µmol/L and 2.20 µmol/L and 1.88 µmol/L | SH groups [4, 8]: 429.5 µmol/L and 423.6 µmol/L and 448.1 µmol/L and 429.7 µmol/L and 435.4 µmol/L and 430.2 µmol/L and 431.0 µmol/L and 426.3 µmol/L and 451.8 µmol/L and 436.7 µmol/L and 436.1 µmol/L and 433.4 µmol/L and 436.8 µmol/L and 432.7 µmol/L and 431.3 µmol/L | SH groups (nmol/mg protein) [4, 8]: 5.19 nmol/mg protein and 5.21 nmol/mg protein and 5.72 nmol/mg protein and 5.41 nmol/mg protein (2×) and 5.42 nmol/mg protein and 5.36 nmol/mg protein and 5.23 nmol/mg protein and 6.02 nmol/mg protein and 5.59 nmol/mg protein and 5.48 nmol/mg protein and 5.47 nmol/mg protein and 5.43 nmol/mg protein and 5.74 nmol/mg protein and 5.52 nmol/mg protein | TBARM [4, 8]: 22.89 µmol/L and 23.48 µmol/L and 29.92 µmol/L and 27.01 µmol/L and 27.83 µmol/L and 27.59 µmol/L and 29.04 µmol/L and 25.67 µmol/L and 25.91 µmol/L and 28.75 µmol/L and 26.32 µmol/L and 24.81 µmol/L and 27.09 µmol/L and 28.27 µmol/L and 24.86 µmol/L | 8-isoprostaglandin F2α [4, 7]: 161.7 pg/mL and 209.0 pg/mL and 162.6 pg/mL and 177.1 pg/mL and 195.2 pg/mL and 207.3 pg/mL and 160.9 pg/mL and 202.4 pg/mL and 207.5 pg/mL and 194.8 pg/mL and 166.1 pg/mL and 184.9 pg/mL and 195.7 pg/mL and 174.4 pg/mL and 162.2 pg/mL | MDA [4, 7]: 1.86 μmol/L and 2.41 μmol/L (2×) and 1.78 μmol/L and 2.02 μmol/L and 1.99 μmol/L and 1.92 μmol/L and 1.79 μmol/L and 2.17 μmol/L and 2.09 μmol/L and 1.83 μmol/L and 2.19 μmol/L and 2.00 μmol/L and 1.87 μmol/L and 1.74 μmol/L | NOx [4, 7]: 19.01 µmol/L and 18.98 µmol/L and 25.67 µmol/L and 21.48 µmol/L and 21.66 µmol/L and 25.18 µmol/L and 24.07 µmol/L and 20.01 µmol/L and 28.23 µmol/L and 27.09 µmol/L and 25.56 µmol/L and 22.29 µmol/L and 26.86 µmol/L and 24.48 µmol/L and 23.16 µmol/L | Nitrate [4, 7]: 16.85 µmol/L and 16.77 µmol/L and 31.12 µmol/L and 19.64 µmol/L and 22.48 µmol/L and 23.99 µmol/L and 20.29 µmol/L and 16.93 µmol/L and 27.46 µmol/L and 28.65 µmol/L and 20.92 µmol/L and 17.03 µmol/L and 22.52 µmol/L and 24.81 µmol/L and 20.02 µmol/L | Nitrite [4, 7]: 1.73 μmol/L and 1.81 μmol/L and 2.41 μmol/L and 1.79 μmol/L and 2.12 μmol/L and 2.11 μmol/L (2×) and 2.06 μmol/L and 1.71 μmol/L and 2.14 μmol/L (2×) and 2.27 μmol/L and 1.84 μmol/L and 2.21 μmol/L and 1.92 μmol/L | TBARM [4, 7]: 22.93 µmol/L and 31.02 µmol/L and 24.76 µmol/L and 26.91 µmol/L and 28.14 µmol/L and 27.31 µmol/L and 24.97 µmol/L and 27.28 µmol/L and 27.99 µmol/L and 27.43 µmol/L and 23.07 µmol/L and 28.11 µmol/L and 28.00 µmol/L and 25.79 µmol/L and 23.16 µmol/L | AOPPs [4, 9]: 0.74 nmol/mg protein and 0.83 nmol/mg protein and 0.75 nmol/mg protein (2×) and 0.78 nmol/mg protein and 0.81 nmol/mg protein (2×) and 0.77 nmol/mg protein (2×) and 0.73 nmol/mg protein (2×) and 0.84 nmol/mg protein and 0.82 nmol/mg protein and 0.79 nmol/mg protein and 0.80 nmol/mg protein | SH groups [4, 9]: 5.23 nmol/mg protein and 5.84 nmol/mg protein and 5.37 nmol/mg protein and 5.44 nmol/mg protein and 5.45 nmol/mg protein and 5.39 nmol/mg protein and 5.11 nmol/mg protein and 6.10 nmol/mg protein and 5.54 nmol/mg protein and 5.59 nmol/mg protein and 5.42 nmol/mg protein and 5.48 nmol/mg protein and 5.79 nmol/mg protein and 5.51 nmol/mg protein and 5.14 nmol/mg protein | AOPPs [4, 10]: 57.87 µmol/L and 65.77 µmol/L and 59.02 µmol/L and 62.29 µmol/L and 64.83 µmol/L and 60.36 µmol/L and 58.95 µmol/L and 65.81 µmol/L and 63.52 µmol/L and 61.07 µmol/L and 59.50 µmol/L and 61.92 µmol/L and 64.34 µmol/L and 59.71 µmol/L and 55.91 µmol/L | SH groups [4, 10]: 425.7 μmol/L and 442.0 μmol/L and 427.9 μmol/L and 441.5 μmol/L and 432.7 μmol/L (2×) and 433.9 μmol/L and 425.9 μmol/L and 448.3 μmol/L and 434.9 μmol/L (2×) and 438.4 μmol/L and 435.1 μmol/L and 432.2 μmol/L and 426.6 μmol/L | Gout episodes (during study period) [5]: 0 (2×) and 1 (8×) and 2 (4×) and 3 | Gout episodes (9 previous months) ([5]; 9 months before the study (baseline)): 1 (5×) and 2 (8×) and 0 and 3 | Doses Allopurinol [5, 11]: 180 (4×) and 175 (2×) and 174 (2×) and 168 and 178 and 179 (2×) and 172 and 176 and 177 | Doses Colchicin [5, 11]: 0 (2×) and 4 (6×) and 8 (3×) and 2 (2×) and 12 and 6 | Doses ibuprofen and similar AINS [5, 11]: 0 (2×) and 8 and 12 (2×) and 6 (4×) and 16 and 4 (2×) and 1 and 3 (2×)

virginiamycin
MIC value [2, 12]: 0.25

gentamycin
MIC value [2, 12]: 2

NC[C@H]1O[C@H](O[C@H]2[C@H](O)[C@@H](O[C@H]3O[C@H](CO)[C@@H](O)[C@H](N)[C@H]3O)[C@H](N)C[C@@H]2N)[C@H](O)[C@@H](O)[C@@H]1O [KAN, kanamycin]
MIC ([2]; Ligilactobacillus salivarius, MIC of the antibiotic to L. salivarius MP98): 128 µg/mL
